From the NIST ThermoML archive (doi:10.1016/j.jct.2009.04.017)
± gives the expanded uncertainty stated by the source.

Test: molar enthalpy of vaporization or sublimation
Conditions: Calvet microcalorimetry

Oc1ccc(Br)cc1 [4-bromophenol]
molar enthalpy (298.15 K, Crystal): 19.9 ± 0.765 kcal/mol

Oc1ccccc1Br [phenol, 2-bromo-]
molar enthalpy (298.15 K, Liquid): 13.3 ± 0.621 kcal/mol
molar enthalpy (329.2 K, Liquid): 13.3 ± 0.621 kcal/mol
